Measured values as given in ChEMBL document CHEMBL5500396, “Discovery, Multiparametric Optimization, and Solid-State Driven Identification of CHF-6550, a Novel Soft Dual Pharmacology Muscarinic Antagonist and β2 Agonist (MABA) for the Inhaled Treatment of Respiratory Diseases” (J Med Chem, 2024).

Key:
[1] = tested on: Cavia porcellus; experiment: Inhibition of histamine induced bronchoconstriction in male albino Dunkin-Hartley guinea pig model at 3 nmol/kg, IT(Intratracheal) preadministered with compound followed by histamine addition at 5 to 30 mins and measured 1 hrs post compound treatment relative to control; conditions: read-out: INH
[2] = molecular target: Beta-2 adrenergic receptor (Cavia porcellus, UniProt Q8K4Z4); experiment: Agonist activity at beta2 adrenoceptor in male albino Dunkin-Hartley guinea pig trachea assessed as inhibition of histamine induced smooth muscle contraction
Beta-2 adrenergic receptor (Cavia porcellus, UniProt Q8K4Z4), sequence (Q8K4Z4 whole entry): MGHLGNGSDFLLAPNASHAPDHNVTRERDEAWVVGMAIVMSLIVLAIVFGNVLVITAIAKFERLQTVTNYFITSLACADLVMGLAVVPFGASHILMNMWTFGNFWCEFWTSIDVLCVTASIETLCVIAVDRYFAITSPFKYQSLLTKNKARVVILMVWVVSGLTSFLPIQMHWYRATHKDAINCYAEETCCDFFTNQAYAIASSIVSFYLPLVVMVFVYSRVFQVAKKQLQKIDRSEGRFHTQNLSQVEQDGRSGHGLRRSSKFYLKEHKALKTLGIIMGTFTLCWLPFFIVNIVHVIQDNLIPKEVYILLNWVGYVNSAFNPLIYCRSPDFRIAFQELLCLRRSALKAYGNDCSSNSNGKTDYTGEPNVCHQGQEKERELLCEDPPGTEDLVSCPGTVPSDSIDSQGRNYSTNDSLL

[3] = in vitro; conditions: human, plasma
Description: Stability in human plasma assessed as half-life at 5 uM incubated for 120 mins by LC-MS/MS analysis

[4] = Protein binding in rat plasma at 5 uM incubated for 4 hrs by LC-MS/MS analysis
[5] = tested on: Trachea; experiment: Inhibition of carbachol-induced smooth muscle contraction in male albino Dunkin-Hartley guinea pig trachea; conditions: Cavia porcellus, read-out: pIC50 (converted)
[6] = Protein binding in human plasma at 5 uM incubated for 4 hrs by LC-MS/MS analysis
[7] = in vitro; conditions: rat, lung S9 fraction
Description: Stability in rat lung S9 fraction assessed as half-life at 1 uM incubated for 60 mins by LC-MS/MS analysis

[8] = organism: Cavia porcellus; experiment: animal or person; conditions: albino Dunkin-Hartley, 1 h, read-out: INH
Description: Inhibition of acetylcholine induced bronchoconstriction in male albino Dunkin-Hartley guinea pig model at 3 nmol/kg, IT(Intratracheal) preadministered with compound followed by acetylcholine addition at 5 to 30 mins in presence of ICI-118551 and measured 1 hrs post compound treatment relative to control

[9] = in vitro; conditions: rat, hepatocytes
Description: Metabolic stability in rat hepatocytes assessed as clearance measured per 10^6 cells at 1 uM incubated for 90 mins by LC-MS/MS analysis

[10] = tested on: Cavia porcellus; experiment: Inhibition of acetylcholine induced bronchoconstriction in male albino Dunkin-Hartley guinea pig model at 3 nmol/kg, IT(Intratracheal) preadministered with compound followed by acetylcholine addition at 5 to 30 mins and measured 24 hrs post compound treatment relative to control; conditions: read-out: INH
[11] = tested on: Cavia porcellus; experiment: Inhibition of acetylcholine induced bronchoconstriction in male albino Dunkin-Hartley guinea pig model at 1 nmol/kg, IT(Intratracheal) preadministered with compound followed by acetylcholine addition at 5 to 30 mins and measured 1 hrs post compound treatment relative to control; conditions: read-out: INH
[12] = in vitro; conditions: human, hepatocytes
Description: Metabolic stability in human hepatocytes assessed as clearance measured per 10^6 cells at 1 uM incubated for 90 mins by LC-MS/MS analysis

[13] = in vitro; conditions: rat, plasma
Description: Stability in rat plasma assessed as half-life at 5 uM incubated for 120 mins by LC-MS/MS analysis

[14] = tested on: Cavia porcellus; experiment: Inhibition of acetylcholine induced bronchoconstriction in male albino Dunkin-Hartley guinea pig model at 3 nmol/kg, IT(Intratracheal) preadministered with compound followed by acetylcholine addition at 5 to 30 mins and measured 1 hrs post compound treatment relative to control; conditions: read-out: INH
[15] = molecular target: Beta-2 adrenergic receptor (Homo sapiens, UniProt P07550)
Beta-2 adrenergic receptor (Homo sapiens, UniProt P07550), sequence (P07550 whole entry): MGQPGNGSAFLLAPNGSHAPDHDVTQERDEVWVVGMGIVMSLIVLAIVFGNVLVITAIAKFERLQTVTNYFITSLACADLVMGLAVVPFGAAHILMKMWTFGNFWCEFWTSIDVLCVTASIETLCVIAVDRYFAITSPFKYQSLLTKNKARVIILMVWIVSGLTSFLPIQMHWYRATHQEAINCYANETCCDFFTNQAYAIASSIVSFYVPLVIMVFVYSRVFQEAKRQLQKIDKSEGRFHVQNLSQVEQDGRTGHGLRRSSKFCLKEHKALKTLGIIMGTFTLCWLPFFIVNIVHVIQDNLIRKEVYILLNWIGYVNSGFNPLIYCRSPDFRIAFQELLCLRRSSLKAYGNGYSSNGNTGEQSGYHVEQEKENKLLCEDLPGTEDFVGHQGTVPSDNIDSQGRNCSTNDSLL
Description: Displacement of [125I]-Cyanopindolol from human beta2 adrenoceptor assessed as inhibition constant incubated for 1 hrs by Microbeta scintillation counter

[16] = in vitro; conditions: human, lung S9 fraction
Description: Stability in human lung S9 fraction assessed as half-life at 1 uM incubated for 60 mins by LC-MS/MS analysis

[17] = molecular target: Muscarinic acetylcholine receptor M3 (Homo sapiens, UniProt P20309)
Muscarinic acetylcholine receptor M3 (Homo sapiens, UniProt P20309), sequence (P20309 whole entry): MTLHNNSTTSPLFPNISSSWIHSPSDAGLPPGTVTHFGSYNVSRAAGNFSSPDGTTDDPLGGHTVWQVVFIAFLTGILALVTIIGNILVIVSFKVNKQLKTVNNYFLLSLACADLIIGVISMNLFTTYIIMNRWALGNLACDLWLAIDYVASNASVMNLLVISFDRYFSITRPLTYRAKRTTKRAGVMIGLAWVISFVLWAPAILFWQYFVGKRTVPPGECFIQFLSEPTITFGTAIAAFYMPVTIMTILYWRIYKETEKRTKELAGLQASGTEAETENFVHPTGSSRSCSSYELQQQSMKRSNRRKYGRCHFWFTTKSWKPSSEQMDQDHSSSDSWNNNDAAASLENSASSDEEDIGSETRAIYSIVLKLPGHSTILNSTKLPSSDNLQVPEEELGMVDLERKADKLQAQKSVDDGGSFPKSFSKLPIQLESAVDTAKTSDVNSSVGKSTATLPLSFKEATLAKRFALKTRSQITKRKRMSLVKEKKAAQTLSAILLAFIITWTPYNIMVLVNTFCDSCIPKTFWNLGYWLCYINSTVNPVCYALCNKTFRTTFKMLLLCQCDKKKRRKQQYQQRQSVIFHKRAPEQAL
Description: Displacement of Scopolamine methyl chloride,[N-methyl-3H] from human muscarinic M3 receptor assessed as inhibition constant incubated for 2 hrs by Microbeta scintillation counter

[18] = in vitro; conditions: guinea pig, lung S9 fraction
Description: Stability in guinea pig lung S9 fraction assessed as half-life at 1 uM incubated for 60 mins by LC-MS/MS analysis

[19] = in vitro; conditions: guinea pig, plasma
Description: Stability in guinea pig plasma assessed as half-life at 5 uM incubated for 120 mins by LC-MS/MS analysis

[20] = molecular target: Muscarinic acetylcholine receptor M3 (Cavia porcellus, UniProt Q8VH26); experiment: Antagonist activity at M3 receptor in male albino Dunkin-Hartley guinea pig trachea assessed as inhibition of carbachol-induced smooth muscle contraction in presence of propranolol
Muscarinic acetylcholine receptor M3 (Cavia porcellus, UniProt Q8VH26), sequence (Q8VH26 whole entry): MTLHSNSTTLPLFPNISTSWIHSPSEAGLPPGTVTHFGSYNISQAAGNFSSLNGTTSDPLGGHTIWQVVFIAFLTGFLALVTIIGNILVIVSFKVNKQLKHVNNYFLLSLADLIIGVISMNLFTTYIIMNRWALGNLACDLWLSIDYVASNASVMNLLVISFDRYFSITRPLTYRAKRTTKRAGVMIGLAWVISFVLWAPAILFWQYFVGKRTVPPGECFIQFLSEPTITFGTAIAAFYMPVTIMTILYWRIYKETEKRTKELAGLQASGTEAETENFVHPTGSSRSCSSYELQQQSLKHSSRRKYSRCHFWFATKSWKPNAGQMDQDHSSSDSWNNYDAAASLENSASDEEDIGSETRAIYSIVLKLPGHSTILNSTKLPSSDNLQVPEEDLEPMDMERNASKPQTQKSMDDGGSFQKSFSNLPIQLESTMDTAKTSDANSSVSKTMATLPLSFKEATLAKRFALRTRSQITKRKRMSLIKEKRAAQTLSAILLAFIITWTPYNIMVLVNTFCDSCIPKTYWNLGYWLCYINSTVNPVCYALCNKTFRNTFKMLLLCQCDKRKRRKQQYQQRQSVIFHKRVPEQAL

[21] = tested on: Cavia porcellus; experiment: Inhibition of histamine induced bronchoconstriction in male albino Dunkin-Hartley guinea pig model at 3 nmol/kg, IT(Intratracheal) preadministered with compound followed by histamine addition at 5 to 30 mins and measured 16 hrs post compound treatment relative to control; conditions: read-out: INH
[22] = tested on: Cavia porcellus; experiment: Inhibition of acetylcholine induced bronchoconstriction in male albino Dunkin-Hartley guinea pig model at 3 nmol/kg, IT(Intratracheal) preadministered with compound followed by acetylcholine addition at 5 to 30 mins and measured 16 hrs post compound treatment relative to control; conditions: read-out: INH
[23] = in vitro; conditions: guinea pig, hepatocytes
Description: Metabolic stability in guinea pig hepatocytes assessed as clearance measured per 10^6 cells at 1 uM incubated for 90 mins by LC-MS/MS analysis

[24] = organism: Cavia porcellus; experiment: animal or person; conditions: albino Dunkin-Hartley, 16 h, read-out: INH
Description: Inhibition of acetylcholine induced bronchoconstriction in male albino Dunkin-Hartley guinea pig model at 3 nmol/kg, IT(Intratracheal) preadministered with compound followed by acetylcholine addition at 5 to 30 mins in presence of ICI-118551 and measured 16 hrs post compound treatment relative to control

[25] = Stability in guinea pig lung S9 fraction at 1 uM incubated for 60 mins by LC-MS/MS analysis
[26] = Protein binding in guinea pig plasma at 5 uM incubated for 4 hrs by LC-MS/MS analysis
[27] = Stability in rat plasma assessed as parent compound remaining at 10 uM incubated for 60 mins by LC-MS/MS analysis
[28] = organism: Cavia porcellus; experiment: animal or person; conditions: albino Dunkin-Hartley, 1 h, read-out: INH; remark: listed apart in the source
Description: Inhibition of acetylcholine induced bronchoconstriction in male albino Dunkin-Hartley guinea pig model at 0.3 nmol/kg, IT(Intratracheal) preadministered with compound followed by acetylcholine addition at 5 to 30 mins in presence of ICI-118551 and measured 1 hrs post compound treatment relative to control

[29] = tested on: Cavia porcellus; experiment: Inhibition of histamine induced bronchoconstriction in male albino Dunkin-Hartley guinea pig model at 1 nmol/kg, IT(Intratracheal) preadministered with compound followed by histamine addition at 5 to 30 mins and measured 1 hrs post compound treatment relative to control; conditions: read-out: INH
[30] = Drug concentration in male albino Dunkin-Hartley guinea pig lung at 50 nmol/kg, IT(Intratracheal) measured after 24 hrs; conditions: inhaled or intranasal
[31] = tested on: Cavia porcellus; experiment: Inhibition of histamine induced bronchoconstriction in male albino Dunkin-Hartley guinea pig model at 0.3 nmol/kg, IT(Intratracheal) preadministered with compound followed by histamine addition at 5 to 30 mins and measured 1 hrs post compound treatment relative to control; conditions: read-out: INH
[32] = tested on: Cavia porcellus; experiment: Inhibition of histamine induced bronchoconstriction in male albino Dunkin-Hartley guinea pig model at 1 nmol/kg, IT(Intratracheal) preadministered with compound followed by histamine addition at 5 to 30 mins and measured 24 hrs post compound treatment relative to control; conditions: read-out: INH
[33] = Drug concentration in male albino Dunkin-Hartley guinea pig lung at 50 nmol/kg, IT(Intratracheal) measured after 3 hrs; conditions: inhaled or intranasal
[34] = tested on: Cavia porcellus; experiment: Inhibition of acetylcholine induced bronchoconstriction in male albino Dunkin-Hartley guinea pig model at 0.3 nmol/kg, IT(Intratracheal) preadministered with compound followed by acetylcholine addition at 5 to 30 mins and measured 1 hrs post compound treatment relative to control; conditions: read-out: INH
[35] = Stability in human plasma assessed as parent compound remaining at 10 uM incubated for 60 mins by LC-MS/MS analysis
[36] = Metabolic stability in rat hepatocytes assessed as parent compound remaining at 10 uM incubated for 60 mins by LC-MS/MS analysis
[37] = tested on: Cavia porcellus; experiment: Inhibition of acetylcholine induced bronchoconstriction in male albino Dunkin-Hartley guinea pig model at 1 nmol/kg, IT(Intratracheal) preadministered with compound followed by acetylcholine addition at 5 to 30 mins and measured 24 hrs post compound treatment relative to control; conditions: read-out: INH
[38] = Metabolic stability in human hepatocytes assessed as parent compound remaining at 10 uM incubated for 60 mins by LC-MS/MS analysis
[39] = organism: Cavia porcellus; experiment: animal or person; conditions: albino Dunkin-Hartley, 1 h, read-out: INH; remark: listed apart in the source
Description: Inhibition of acetylcholine induced bronchoconstriction in male albino Dunkin-Hartley guinea pig model at 1 nmol/kg, IT(Intratracheal) preadministered with compound followed by acetylcholine addition at 5 to 30 mins in presence of ICI-118551 and measured 1 hrs post compound treatment relative to control

[40] = Drug concentration in male albino Dunkin-Hartley guinea pig lung at 50 nmol/kg, IT(Intratracheal) measured after 0.083 hrs; conditions: inhaled or intranasal
[41] = organism: Cavia porcellus; experiment: animal or person; conditions: albino Dunkin-Hartley, 24 h, read-out: INH
Description: Inhibition of acetylcholine induced bronchoconstriction in male albino Dunkin-Hartley guinea pig model at 1 nmol/kg, IT(Intratracheal) preadministered with compound followed by acetylcholine addition at 5 to 30 mins in presence of ICI-118551 and measured 24 hrs post compound treatment relative to control

[42] = in vivo; conditions: male, Dunkin-Hartley, guinea pig, inhaled or intranasal, 0.3 mM
Description: Toxicity in male albino Dunkin-Hartley guinea pig model assessed as inhibition of carbachol-induced salivation at 0.3 mM, preadministered with compound for 10 mins via aerosol followed by anesthesia treatment 3 hrs post compound addition and further treated with carbachol and measured every 5 mins for 4 times

[43] = tested on: Cavia porcellus; experiment: Inhibition of acetylcholine induced bronchoconstriction in male albino Dunkin-Hartley guinea pig model at 0.3 nmol/kg, IT(Intratracheal) preadministered with compound followed by acetylcholine addition at 5 to 30 mins and measured 16 hrs post compound treatment relative to control; conditions: read-out: INH
[44] = tested on: Cavia porcellus; experiment: Inhibition of histamine induced bronchoconstriction in male albino Dunkin-Hartley guinea pig model at 0.3 nmol/kg, IT(Intratracheal) preadministered with compound followed by histamine addition at 5 to 30 mins and measured 16 hrs post compound treatment relative to control; conditions: read-out: INH
[45] = molecular target: Voltage-gated inwardly rectifying potassium channel KCNH2 (Homo sapiens, UniProt Q12809)
Description: Inhibition of human ERG by patch clamp assay

[46] = in vivo; conditions: male, Dunkin-Hartley, guinea pig, inhaled or intranasal, 1 mM
Description: Toxicity in male albino Dunkin-Hartley guinea pig model assessed as inhibition of carbachol-induced salivation at 1 mM, preadministered with compound for 10 mins via aerosol followed by anesthesia treatment 3 hrs post compound addition and further treated with carbachol and measured every 5 mins for 4 times

[47] = molecular target: Voltage-dependent L-type calcium channel subunit alpha-1C (Homo sapiens, UniProt Q13936)
Voltage-dependent L-type calcium channel subunit alpha-1C, sequence (Q13936 whole entry): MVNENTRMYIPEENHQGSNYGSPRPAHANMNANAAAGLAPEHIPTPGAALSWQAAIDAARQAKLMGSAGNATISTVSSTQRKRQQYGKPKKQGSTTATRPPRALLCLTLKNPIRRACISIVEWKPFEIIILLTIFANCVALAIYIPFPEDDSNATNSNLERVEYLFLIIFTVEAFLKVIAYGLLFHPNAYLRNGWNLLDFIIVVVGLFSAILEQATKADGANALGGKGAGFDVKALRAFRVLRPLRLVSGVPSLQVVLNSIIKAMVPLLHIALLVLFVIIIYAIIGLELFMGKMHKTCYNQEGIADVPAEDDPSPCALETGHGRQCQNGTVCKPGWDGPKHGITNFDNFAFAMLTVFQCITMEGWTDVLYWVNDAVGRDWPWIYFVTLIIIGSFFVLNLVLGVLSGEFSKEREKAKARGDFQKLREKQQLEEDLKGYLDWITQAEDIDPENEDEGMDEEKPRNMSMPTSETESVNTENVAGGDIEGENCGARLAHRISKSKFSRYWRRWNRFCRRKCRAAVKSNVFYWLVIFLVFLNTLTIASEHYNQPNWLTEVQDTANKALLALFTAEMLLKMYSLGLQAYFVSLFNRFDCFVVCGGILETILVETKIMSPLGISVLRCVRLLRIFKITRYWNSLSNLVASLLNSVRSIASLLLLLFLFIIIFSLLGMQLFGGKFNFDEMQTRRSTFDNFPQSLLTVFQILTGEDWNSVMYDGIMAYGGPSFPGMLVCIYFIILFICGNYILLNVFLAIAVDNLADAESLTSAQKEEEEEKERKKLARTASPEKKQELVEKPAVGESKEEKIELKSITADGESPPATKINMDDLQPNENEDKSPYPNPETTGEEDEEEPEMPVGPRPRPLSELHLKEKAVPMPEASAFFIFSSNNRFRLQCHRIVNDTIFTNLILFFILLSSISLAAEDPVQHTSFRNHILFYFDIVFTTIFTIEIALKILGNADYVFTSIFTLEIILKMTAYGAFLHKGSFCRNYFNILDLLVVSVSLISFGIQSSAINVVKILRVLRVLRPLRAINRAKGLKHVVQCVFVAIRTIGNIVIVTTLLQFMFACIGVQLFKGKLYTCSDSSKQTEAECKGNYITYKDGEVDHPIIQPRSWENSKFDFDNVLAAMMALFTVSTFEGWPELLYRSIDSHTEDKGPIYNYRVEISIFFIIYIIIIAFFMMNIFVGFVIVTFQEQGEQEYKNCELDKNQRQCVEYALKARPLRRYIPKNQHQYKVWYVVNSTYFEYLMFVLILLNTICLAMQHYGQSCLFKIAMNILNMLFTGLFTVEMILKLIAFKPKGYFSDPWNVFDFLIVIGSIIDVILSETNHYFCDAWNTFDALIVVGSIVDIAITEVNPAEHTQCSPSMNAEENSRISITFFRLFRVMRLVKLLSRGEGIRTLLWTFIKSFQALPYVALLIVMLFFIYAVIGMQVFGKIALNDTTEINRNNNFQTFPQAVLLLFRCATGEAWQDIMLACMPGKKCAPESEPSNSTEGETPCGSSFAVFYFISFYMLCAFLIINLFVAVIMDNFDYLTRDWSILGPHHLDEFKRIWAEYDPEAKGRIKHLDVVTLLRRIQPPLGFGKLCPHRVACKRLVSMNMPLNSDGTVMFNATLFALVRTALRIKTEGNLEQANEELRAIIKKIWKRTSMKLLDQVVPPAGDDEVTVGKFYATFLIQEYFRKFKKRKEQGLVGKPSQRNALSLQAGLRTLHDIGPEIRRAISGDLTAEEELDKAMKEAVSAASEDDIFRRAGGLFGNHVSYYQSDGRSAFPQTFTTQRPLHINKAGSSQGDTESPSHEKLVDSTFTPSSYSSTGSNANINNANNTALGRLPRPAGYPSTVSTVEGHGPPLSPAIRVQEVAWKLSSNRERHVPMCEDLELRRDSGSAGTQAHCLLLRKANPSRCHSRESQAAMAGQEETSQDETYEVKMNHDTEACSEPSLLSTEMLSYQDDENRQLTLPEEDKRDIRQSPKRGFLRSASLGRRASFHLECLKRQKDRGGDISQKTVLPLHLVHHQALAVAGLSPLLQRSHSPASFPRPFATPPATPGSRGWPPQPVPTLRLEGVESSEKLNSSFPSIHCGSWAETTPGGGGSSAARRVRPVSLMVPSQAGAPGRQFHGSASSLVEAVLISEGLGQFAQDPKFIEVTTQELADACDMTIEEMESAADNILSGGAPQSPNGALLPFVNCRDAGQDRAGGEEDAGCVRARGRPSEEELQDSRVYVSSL
Description: Inhibition of human Cav1.2

[48] = tested on: Cavia porcellus; experiment: Bronchodilating effect in acetylcholine induced male albino Dunkin-Hartley guinea pig model assessed as maximal efficacy at 0.3 nmol/kg, IT(Intratracheal) administered with compound followed by acetylcholine addition at 5 to 30 mins and measured 1 hrs post compound treatment relative to control
[49] = in vivo; conditions: rat, iv, 125 ug
Description: Volume of distribution at steady state in rat at 125 ug, iv measured after 1 hrs by LC-MS analysis

[50] = in vivo; conditions: male, Dunkin-Hartley, guinea pig, inhaled or intranasal, 3 mM
Description: Toxicity in male albino Dunkin-Hartley guinea pig model assessed as inhibition of carbachol-induced salivation at 3 mM, preadministered with compound for 10 mins via aerosol followed by anesthesia treatment 3 hrs post compound addition and further treated with carbachol and measured every 5 mins for 4 times

[51] = molecular target: Sodium channel protein type 5 subunit alpha (Homo sapiens, UniProt Q14524)
Description: Inhibition of human Nav1.5

[52] = Half-life in guinea pig at 3 nmol/kg, IT(Intratracheal) administered as dry powder; conditions: in vivo, inhaled or intranasal
[53] = organism: Cavia porcellus; experiment: animal or person; conditions: albino Dunkin-Hartley, 16 h, read-out: INH; remark: listed apart in the source
Description: Inhibition of acetylcholine induced bronchoconstriction in male albino Dunkin-Hartley guinea pig model at 0.3 nmol/kg, IT(Intratracheal) preadministered with compound followed by acetylcholine addition at 5 to 30 mins in presence of ICI-118551 and measured 16 hrs post compound treatment relative to control

[54] = organism: Cavia porcellus; experiment: animal or person; conditions: albino Dunkin-Hartley, 1 h
Description: Bronchodilating effect in acetylcholine induced male albino Dunkin-Hartley guinea pig model assessed as maximal efficacy at 0.3 nmol/kg, IT(Intratracheal) administered with compound followed by acetylcholine addition at 5 to 30 mins in presence of ICI-118551 and measured 1 hrs post compound treatment relative to control

[55] = tested on: Cavia porcellus; experiment: Bronchodilating effect in histamine induced male albino Dunkin-Hartley guinea pig model assessed as maximal efficacy at 0.3 nmol/kg, IT(Intratracheal) administered with compound followed by histamine addition at 5 to 30 mins and measured 1 hrs post compound treatment relative to control
[56] = in vivo; conditions: rat, iv, 125 ug; remark: listed apart in the source
Description: Clearance in rat at 125 ug, iv measured after 1 hrs by LC-MS analysis

| SMILES | inhibition in vivo at 0.003 µmol/kg [1] | IC50 [2] | half-life at 2 h, 5 µM [3] | IC50 [5] | fraction unbound at 4 h, 5 µM [6] | half-life at 1 h, 1 µM [7] | inhibition in vivo at 0.003 µmol/kg [8] | hepatocyte CLint at 1.5 h, 1 µM [9] | inhibition in vivo at 0.001 µmol/kg [11] | hepatocyte CLint at 1.5 h, 1 µM [12] | half-life at 2 h, 5 µM [13] | inhibition in vivo at 0.003 µmol/kg [14] | Ki [15] | half-life at 1 h, 1 µM [16] | Ki [17] | half-life at 1 h, 1 µM [18] | half-life at 2 h, 5 µM [19] | IC50 [20] | hepatocyte CLint at 1.5 h, 1 µM [23] | remaining at 1 h, 1 µM [25] | further results |
| --- | --- | --- | --- | --- | --- | --- | --- | --- | --- | --- | --- | --- | --- | --- | --- | --- | --- | --- | --- | --- | --- |
| O=C(c1ccc(OCc2ccc(CNC[C@H](O)c3ccc(O)c4[nH]c(=O)ccc34)cc2)cc1)N1CCC(C(=O)OC2CN3CCC2CC3)(c2ccccc2)CC1 (single isomer, unassigned) | 21% | 0.501 nM | > 2.5 h | 1 nM | 0.02 | 3.62 h | 90% | 27 µL/min/1e6 cells | 60% | 15 µL/min/1e6 cells | > 2.5 h | 93% | 0.2 nM | 4.67 h | 0.251 nM | 3.6 h | 1.82 h | 2.51 nM |  |  | fraction unbound at 4 h, 5 µM [4]: 0.15; inhibition in vivo at 0.003 µmol/kg [10]: 68% |
| O=C(NCCCOc1cccc([C@@](O)(C(=O)OCC2CCN(Cc3ccccc3)CC2)c2ccccc2)c1)c1ccc(CNCC(O)c2ccc(O)c3[nH]c(=O)ccc23)cc1 (some centres not stated) | 86% | 0.0501 nM | > 2.5 h | 0.251 nM | 0.01 | 4.52 h | 70% | 33 µL/min/1e6 cells |  | 18 µL/min/1e6 cells | 0.183 h | 93% | 0.0501 nM | 2.3 h | 10 nM | 4.67 h | > 2.5 h | 10 nM | 41 µL/min/1e6 cells | 91.9% | inhibition in vivo at 0.003 µmol/kg [21]: 39%; inhibition in vivo at 0.003 µmol/kg [22]: 56%; inhibition in vivo at 0.003 µmol/kg [24]: 39%; fraction unbound at 4 h, 5 µM [26]: 0.01 |
| O=C(NCCCOc1cccc([C@](O)(C(=O)OCC2CCN(Cc3ccccc3)CC2)c2ccccc2)c1)c1ccc(CNC[C@H](O)c2ccc(O)c3[nH]c(=O)ccc23)cc1 |  | 0.316 nM | > 2.5 h | 0.501 nM | 0.01 | 2.37 h |  | 30 µL/min/1e6 cells | 94% | 25 µL/min/1e6 cells | 0.45 h |  | 0.1 nM | 3.22 h | 0.398 nM | 0.35 h | < 0.0833 h | 0.398 nM | 316 µL/min/1e6 cells | 14% | remaining at 1 h, 10 µM [27]: 67%; inhibition in vivo at 0.0003 µmol/kg [28]: 23%; inhibition in vivo at 0.001 µmol/kg [29]: 66%; concentration at 24 h [30]: 1170 ng/g; inhibition in vivo at 0.0003 µmol/kg [31]: 34%; inhibition in vivo at 0.001 µmol/kg [32]: 5%; concentration at 3 h [33]: 1160 ng/g; inhibition in vivo at 0.0003 µmol/kg [34]: 49%; remaining at 1 h, 10 µM [35]: > 99%; remaining at 1 h, 10 µM [36]: 70%; inhibition in vivo at 0.001 µmol/kg [37]: 95%; remaining at 1 h, 10 µM [38]: 91%; inhibition in vivo at 0.001 µmol/kg [39]: 87%; concentration at 0.083 h [40]: 1270 ng/g; inhibition in vivo at 0.001 µmol/kg [41]: 79% |
| C[N+]1(C)[C@@H]2C[C@@H](OC(=O)C(O)(c3cccs3)c3cccs3)C[C@H]1[C@@H]1O[C@@H]12 [TIOTROPIUM BROMIDE] |  |  |  |  |  |  |  |  |  |  |  |  |  |  |  |  |  |  |  |  | inhibition at 3.167 h, 300 µM [42]: 77% |
| CN1CCC[C@@H](OC(=O)[C@](O)(c2ccccc2)c2cccc(OCCCNC(=O)c3ccc(CNC[C@H](O)c4ccc(O)c5[nH]c(=O)ccc45)cc3)c2)C1 |  | 0.1 nM | > 2.5 h | 0.126 nM |  |  |  | 12 µL/min/1e6 cells |  | 3 µL/min/1e6 cells | 0.15 h |  | 0.0251 nM |  |  |  | 1.3 h |  |  | 91.1% | inhibition in vivo at 0.0003 µmol/kg [43]: 84%; inhibition in vivo at 0.0003 µmol/kg [44]: 57%; IC50 [45]: 128000 nM; inhibition in vivo at 0.0003 µmol/kg [28]: 78%; inhibition at 3.167 h, 1000 µM [46]: 33%; inhibition in vivo at 0.0003 µmol/kg [31]: 89%; inhibition in vivo at 0.0003 µmol/kg [34]: 89%; IC50 [47]: 314000 nM; Emax at 0.0003 µmol/kg [48]: 89%; Vd at 1 h [49]: 0.75 L/kg; inhibition at 3.167 h, 3000 µM [50]: 43%; IC50 [51]: 310000 nM; half-life [52]: 25 h; inhibition in vivo at 0.0003 µmol/kg [53]: 54%; Emax at 0.0003 µmol/kg [54]: 89%; Emax at 0.0003 µmol/kg [55]: 89%; clearance at 1 h [56]: 75 mL/min/kg |
